In patent publication US20260070924A1, “INDAZOLE MACROCYCLES AND THEIR USE” (BLOSSOMHILL THERAPEUTICS, INC., priority 2022, published 2026):

What was measured:
[1] = biological target: FLT3 (D835H) (Homo sapiens (Human), UniProt P36888, D835H); assay: KINOMEscan binding assay (Eurofins DiscoveRx)
Method: (§1) For most kinases, kinase-tagged T7 phage strains were prepared in an E. coli host derived from the BL21 strain. E. coli were grown to log-phase and infected with T7 phage and incubated with shaking at 32° C. until lysis. The lysates were centrifuged and filtered to remove cell debris. The remaining kinases were produced in HEK-293 cells and subsequently tagged with DNA for qPCR detection. Streptavidin-coated magnetic beads were treated with biotinylated small molecule ligands for 30 minutes at room temperature to generate affinity resins for kinase assays. The liganded beads were blocked with excess biotin and washed with blocking buffer (SeaBlock (Pierce), 1% BSA, 0.05% Tween 20, 1 mM DTT) to remove unbound ligand and to reduce non-specific binding. […] Test compounds were prepared as 111× stocks in 100% DMSO. Kds were determined using an 11-point 3-fold compound dilution series with three DMSO control points. […] The compounds were then diluted directly into the assays such that the final concentration of DMSO was 0.9%. All reactions performed in polypropylene 384-well plate. Each was a final volume of 0.02 ml. […] The kinase concentration in the eluates was measured by qPCR. Binding constants (Kds) were calculated with a standard dose-response curve using a non-linear least square fit with the Levenberg-Marquardt algorithm.

[2] = biological target: FLT3 (D835V) (Homo sapiens (Human), UniProt P36888, D835V); assay: KINOMEscan binding assay (Eurofins DiscoveRx)
Method: as §1

[3] = biological target: FLT3 (D835Y) (Homo sapiens (Human), UniProt P36888, D835Y); assay: KINOMEscan binding assay (Eurofins DiscoveRx)
Method: as §1

[4] = biological target: FLT3 (Homo sapiens (Human), UniProt P36888); assay: KINOMEscan binding assay (Eurofins DiscoveRx)
Method: as §1

[5] = biological target: FLT3 (ITD); assay: KINOMEscan binding assay (Eurofins DiscoveRx)
Method: as §1

[6] = biological target: FLT3 (ITD, D835V); assay: KINOMEscan binding assay (Eurofins DiscoveRx)
Method: as §1

[7] = biological target: FLT3 (ITD, F691L); assay: KINOMEscan binding assay (Eurofins DiscoveRx)
Method: as §1

[8] = biological target: FLT3 (K663Q) (Homo sapiens (Human), UniProt P36888, K663Q); assay: KINOMEscan binding assay (Eurofins DiscoveRx)
Method: as §1

[9] = biological target: FLT3 (N841I) (Homo sapiens (Human), UniProt P36888, N841I); assay: KINOMEscan binding assay (Eurofins DiscoveRx)
Method: as §1

[10] = biological target: FLT3 (R834Q) (Homo sapiens (Human), UniProt P36888, R834Q); assay: KINOMEscan binding assay (Eurofins DiscoveRx)
Method: as §1

[11] = biological target: FLT3-autoinhibited (Homo sapiens (Human), UniProt P36888); assay: KINOMEscan binding assay (Eurofins DiscoveRx)
Method: as §1

[12] = system: Phospho-S6 Ribosomal Protein (S235/236); assay: Inhibition of kinase phosphorylation by Western Blot in MV-4-11; assay type: cell-based; conditions: MV-4-11 cells, 4 hour-incubation; read-out: pS6 MV-4-11 IC50
Method: (§2) Inhibition of kinase phosphorylation assay was performed by Western Blot using MV-4-11 and MOLM13 cell lines. Cells were plated in 24 well plates at 1 million cells per well and then treated with compounds at different concentrations, starting at 100 nM, 1:4 titration with DMSO as control. After 4 hour-incubation, cells were washed once with ice-cold PBS, and lysed in RIPA lysis buffer with protease and phosphatase inhibitors. The cell lysates were then sonicated and spun down, and 40 μg of proteins were separated by sodium dodecyl sulfate electrophoresis on a 4 to 12% Bis-Tris polyacrylamide gel and transferred onto nitrocellulose membranes using Bio-Rad Trans-Blot Turbo Transfer System (Bio-Rad). Blocking was performed using 3% BSA or 5% Non-fat dry milk (Fisher Scientific) in TBST (Tris-buffered saline containing 0.05% of Tween 20) (Bio-Rad Laboratories, Inc.). The membranes were incubated overnight with anti-phospho-FLT3 (Y589/Y591) (CST #60413), anti-phospho-STAT5 (Y694) (CST #4322), anti-Phospho-p44/42 MAPK (Erk1/2) (T202/Y204) (CST #9101), anti-Phospho-S6 Ribosomal Protein (S235/236) (CST #4858) and anti-β-Actin (CST #8457) each diluted 1000 times in 3% BSA in TBST. Membranes were washed with TBST and then incubated at room temperature for 1 hour with HRP-labeled anti-rabbit IgG polyclonal antibody (CST #7074) diluted 1000 times in 3% BSA. After TBST washing, blots were developed with a chemiluminescence system (SuperSignal West Femto Maximum Sensitivity Substrate, Pierce #34095). Luminescence was detected by LI-COR Odyssey M imaging system and luminescence intensity were quantified using Empiria Studio 2.2 software. Data was analyzed using GraphPad Prism 9 (GraphPad Software, San Diego, CA) to obtain IC50 values.

[13] = system: Phospho-p44/42 MAPK (Erk1/2) (T202/Y204); assay: as above; assay type: cell-based; conditions: MV-4-11 cells, 4 hour-incubation; read-out: pERK MV-4-11 IC50
Method: as §2

[14] = system: phospho-STAT5 (Y694); assay: as above; assay type: cell-based; conditions: MV-4-11 cells, 4 hour-incubation; read-out: pSTAT5 MV-4-11 IC50
Method: as §2

[15] = system: BCLxS/xL; assay: Alternative splicing ratio by qPCR in MOLM-13; assay type: cell-based; conditions: DMSO = 1.00
Method: Alternative splicing ratio of RNA transcripts was measured by qPCR in MV-4-11 and MOLM-13 cell lines. Cells were plated in 24 well plates at 1 million cells per well and then treated with compounds at different concentrations, with DMSO only as control. After 8-hour-incubation, cells were harvested and washed once with ice-cold PBS, and lysed in RNA lysis buffer (Invitrogen). Total RNA was extracted using the RNA Purification Kit (Invitrogen). 2 μg of RNA was used for cDNA synthesis using cDNA synthesis kit (ThermoFisher) and 20 ng of cDNA was used for qPCR using PROFLEX 96-Well PCR System (ThermoFisher).
• BCLxS/xL (SYBR Green, IDT)

CCc1nn(C)c2c1/C=C/c1n[nH]c3ccc(cc13)-c1cnn(C)c1OCCN(C)C2=O [Ex. 6, (17E)-16-ethyl-8,12,14-trimethyl-2,11,12,14-tetrahydro-8H-3,5-ethenotripyrazolo[3,4-f:3′,4′-j:4″,3″-n][1,4]oxazacyclopentadecin-13(10H)-one]
Kd [1]: 67 nM | Kd [2]: 0.062 nM | Kd [3]: 4.1 nM | Kd [4]: 0.18 nM | Kd [5]: 6.3 nM | Kd [6]: 0.058 nM | Kd [7]: 0.23 nM | Kd [8]: 16 nM | Kd [9]: 2.2 nM | Kd [10]: 0.89 nM | Kd [11]: 9.1 nM | IC50 [12]: 0.41 nM | IC50 [13]: 2.85 nM | IC50 [14]: 0.6 nM | Alternative Splicing Ratio BCL-xS/xL ([15]; MOLM-13, 30 nM): 1.51 | Alternative Splicing Ratio BCL-xS/xL ([15]; MOLM-13, 100 nM): 3.54 | Alternative Splicing Ratio BCL-xS/xL ([15]; MOLM-13, 300 nM): 4.20
